Laboratory results as given in patent publication US11649255B2, “Indazoles as hematopoietic progenitor kinase 1 (HPK1) inhibitors and methods using same” (1st Biotherapeutics, Inc., priority 2020, dated 2023).

biological target: recombinant human HPK1 (Homo sapiens (Human), UniProt Q92918); test: HPK1 kinase assay (ADP-Glo); assay type: biochemical; details: 25 μM ATP, MBP substrate
Description: HPK1 kinase activity was measured by Promega's ADP-Glo™ kinase assay. In this assay, 5 ng of recombinant human HPK1 (signalchem) is incubated with 5 μL of compounds (0.5% DMSO), 5 μL of MBP (0.5 μg/μl) and 5 μL of ATP (25 μM) in buffer (40 mM Tris, 7.5; 20 mM MgCl2; 0.1 mg/ml BSA; 5 μM DTT). The assay was started by incubating the reaction mixture in a 96-well plate at 30′ C for 40 minutes. After the incubation, 25 uL ADP-Glo reagent was added and the reaction was incubated at room temperature for 40-min to stop the reaction and degrade residual ATP. The ADP product was then converted to ATP by adding 50 uL per well of detection reagent. Luminescence was detected after 30-min room temperature incubation with the Molecular device I3X plate reader. The IC50 values were calculated from a series of percent inhibition values determined at a range of inhibitor concentration using software routines as implemented in the GraphPad Prism 7 software and SigmaPlot13.0.

Sequence of recombinant human HPK1 (Q92918 whole entry): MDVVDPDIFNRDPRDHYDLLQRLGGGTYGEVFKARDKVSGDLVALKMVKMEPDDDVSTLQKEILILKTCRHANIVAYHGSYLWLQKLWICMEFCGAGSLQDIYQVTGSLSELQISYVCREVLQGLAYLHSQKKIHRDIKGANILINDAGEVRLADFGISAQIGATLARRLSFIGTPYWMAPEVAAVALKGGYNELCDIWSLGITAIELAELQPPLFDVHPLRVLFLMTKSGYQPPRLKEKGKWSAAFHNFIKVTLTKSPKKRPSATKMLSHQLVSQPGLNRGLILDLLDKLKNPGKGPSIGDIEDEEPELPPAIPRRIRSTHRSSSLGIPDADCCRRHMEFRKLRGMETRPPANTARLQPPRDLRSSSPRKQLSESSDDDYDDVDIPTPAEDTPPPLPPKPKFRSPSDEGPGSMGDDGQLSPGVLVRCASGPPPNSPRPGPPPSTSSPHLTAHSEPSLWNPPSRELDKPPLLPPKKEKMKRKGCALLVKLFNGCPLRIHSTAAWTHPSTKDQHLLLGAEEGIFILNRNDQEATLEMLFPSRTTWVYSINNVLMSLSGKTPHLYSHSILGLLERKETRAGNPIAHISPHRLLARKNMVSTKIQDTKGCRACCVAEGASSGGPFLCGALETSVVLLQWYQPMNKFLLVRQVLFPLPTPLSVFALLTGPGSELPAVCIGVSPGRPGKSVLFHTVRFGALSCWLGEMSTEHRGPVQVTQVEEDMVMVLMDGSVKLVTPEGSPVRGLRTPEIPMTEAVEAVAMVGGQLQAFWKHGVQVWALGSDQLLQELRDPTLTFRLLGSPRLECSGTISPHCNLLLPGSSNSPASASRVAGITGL

Compared with `O=C(Nc1cc2cc(-c3c(CO)ccc4[nH]ncc34)ccn2n1)[C@@H]1C[C@@H]1F` [Example 461, (1S,2S)-2-fluoro-N-(5-(5-(hydroxymethyl)-1H-indazol-4-yl)pyrazolo[1,5-a]pyridin-2-yl)cyclopropane-1-carboxamide], `C=Cc1c(F)cc2[nH]ncc2c1-c1ccn2nc(NC(=O)[C@@H]3C[C@@H]3F)cc2c1` [Example 447, (1S,2S)-2-fluoro-N-(5-(6-fluoro-5-vinyl-1H-indazol-4-yl)pyrazolo[1,5-a]pyridin-2-yl)cyclopropane-1-carboxamide] is lower in IC50: > 1000 nM for the first, < 100 nM for the second.

Compared with `CSc1c(F)cc2[nH]ncc2c1-c1cc2sc(NC(=O)[C@@H]3C[C@@H]3F)nc2cn1` [Example 219, (1S,2S)-2-fluoro-N-(6-(6-fluoro-5-(methylthio)-1H-indazol-4-yl)thiazolo[4,5-c]pyridin-2-yl)cyclopropane-1-carboxamide], `C[S+]([O-])c1c(F)c(Cl)c(-c2ccc3nc(NC(=O)[C@@H]4C[C@@H]4F)sc3c2)c2cn[nH]c12` (stereo partly drawn) [Example 63, (1S,2S)-N-(6-(5-chloro-6-fluoro-7-(methylsulfinyl)-1H-indazol-4-yl)benzo[d]thiazol-2-yl)-2-fluorocyclopropane-1-carboxamide] is lower in IC50: 101 to 500 nM for the first, < 100 nM for the second. The second is the more potent here.

`COCc1c(F)c(Cl)c(-c2ccc3nc(NC(=O)[C@@H]4C[C@@H]4F)cn3c2)c2cn[nH]c12` [Example 390, (1S,2S)-N-(6-(5-chloro-6-fluoro-7-(methoxymethyl)-1H-indazol-4-yl)imidazo[1,2-a]pyridin-2-yl)-2-fluorocyclopropane-1-carboxamide] and `O=C(Nc1cn2cc(-c3c(Cl)c(F)c(NC4CC4)c4[nH]ncc34)ccc2n1)[C@@H]1C[C@@H]1F` [Example 367, (1S,2S)-N-(6-(5-chloro-7-(cyclopropylamino)-6-fluoro-1H-indazol-4-yl)imidazo[1,2-a]pyridin-2-yl)-2-fluorocyclopropane-1-carboxamide] cannot be ordered by IC50: < 100 nM for the first, < 100 nM for the second.

`COC[C@H](C)c1c(F)c(Cl)c(-c2ccn3nc(NC(=O)[C@@H]4C[C@@H]4F)cc3c2)c2cn[nH]c12` [Example 655, (1S,2S)-N-(5-(5-chloro-6-fluoro-7-((R)-1-methoxypropan-2-yl)-1H-indazol-4-yl)pyrazolo[1,5-a]pyridin-2-yl)-2-fluorocyclopropane-1-carboxamide] and `O=C(Nc1cc2cc(-c3c(Cl)c(F)c(-n4cccc4)c4[nH]ncc34)ccn2n1)[C@@H]1C[C@@H]1F` [Example 637, (1S,2S)-N-(5-(5-chloro-6-fluoro-7-(1H-pyrrol-1-yl)-1H-indazol-4-yl)pyrazolo[1,5-a]pyridin-2-yl)-2-fluorocyclopropane-1-carboxamide] cannot be ordered by IC50: < 100 nM for the first, < 100 nM for the second.

Compared with `O=C(Nc1nc2ccc(-c3c(F)ccc4[nH]ncc34)cc2s1)C1CC1` [Example 15, N-(6-(5-fluoro-1H-indazol-4-yl)benzo[d]thiazol-2-yl)cyclopropanecarboxamide], `O=C(Nc1cn2cc(-c3c(Cl)c(F)cc4[nH]ncc34)ccc2n1)[C@@H]1C[C@@H]1F` [Example 243, (1S,2S)-N-(6-(5-chloro-6-fluoro-1H-indazol-4-yl)imidazo[1,2-a]pyridin-2-yl)-2-fluorocyclopropane-1-carboxamide] is lower in IC50: 101 to 500 nM for the first, < 100 nM for the second. The second is the more potent here.

`CNC(=O)OCCSc1c(F)c(C)c(-c2ccc3nc(NC(=O)[C@@H]4C[C@@H]4F)cn3c2)c2cn[nH]c12` [Example 312, 2-((6-fluoro-4-(2-((1S,2S)-2-fluorocyclopropane-1-carboxamido)imidazo[1,2-a]pyridin-6-yl)-5-methyl-1H-indazol-7-yl)thio)ethyl methylcarbamate] and `CN(c1ccccn1)c1c(F)c(Cl)c(-c2ccc3nc(NC(=O)[C@@H]4C[C@@H]4F)cn3c2)c2cn[nH]c12` [Example 337, (1S,2S)-N-(6-(5-chloro-6-fluoro-7-(methyl(pyridin-2-yl)amino)-1H-indazol-4-yl)imidazo[1,2-a]pyridin-2-yl)-2-fluorocyclopropane-1-carboxamide] cannot be ordered by IC50: < 100 nM for the first, < 100 nM for the second.
